From US20090253785A1, “Bactericide composition” (priority 2007, published 2009)

Experiments:
Assay type in all cases: cell-based
[1] = test system: Escherichia coli (E. coli); assay: Quantitative test of bacterial suspension, E. coli; conditions: for Anti-bacteria ratio / Remaining bacteria: E. coli, incubated 24 hours
Method: (§1) S. aureus, E. coli, MRSA and P. acnes were respectively prepared to form a suspension. The concentration of the suspension was about 1.5×10^8 CFU/ml (density=0.5 McFarland), and then was diluted 100 times (about 1.5×10^6 CFU/ml).
(§2) L-ascorbic acid solutions were prepared respectively in concentrations of 1 wt %, 5 wt %, 10 wt %, 15 wt %, 20 wt %, 25 wt % and 30 wt %. The different concentrations of L-ascorbic acid solutions were used as a test. A hydrochloric acid solution and distilled water were used respectively as a positive control and a negative control, and the pH value of the hydrochloric acid solution was the same of the pH value of the 25 wt % L-ascorbic acid solution.
(§3) 1 ml bacterial suspension was added to a 9 ml L-ascorbic acid solution for testing, and equal amounts of the bacterial suspension were added respectively to the positive control of 9 ml hydrochloric acid solution and the negative control of 9 ml distilled water, and then all solutions were incubated for 24 hours.
(§4) After incubating for 24 hours, all the solutions were series diluted, until diluted 1000 times to form a series of dilution solutions.
(§5) To calculate bacteria remaining in the solutions, 0.2 ml of each series of dilution solutions were cultured respectively on Petri dishes and repeated twice.
(§6) Each Petri dish was cultured in an incubator at 35±2° C. for 1˜2 days (S. aureus, E. coli) or for 2˜4 days (MRSA and P. acnes) to observe bacteria growth on Petri dish and the bacteria were counted.
(§7) Anti-bacterial ratio (%)=[(remaining bacteria of controls−remaining bacteria of test)/remaining bacteria of controls]×100%

[2] = test system: Staphylococcus aureus (S. aureus); assay: Quantitative test of bacterial suspension, S. aureus; conditions: for Anti-bacteria ratio / Remaining bacteria: S. aureus, incubated 24 hours
Method: as §1, §2, §3, §4, §5, §6, §7

[3] = test system: Methicillin-resistant Staphylococcus aureus (MRSA); assay: Quantitative test of bacterial suspension, MRSA; conditions: for Anti-bacteria ratio / Remaining bacteria: MRSA, incubated 24 hours
Method: as §1, §2, §3, §4, §5, §6, §7

[4] = test system: Propionibacterium acnes (P. acnes); assay: Quantitative test of bacterial suspension, P. acnes; conditions: for Anti-bacteria ratio / Remaining bacteria: P. acnes, incubated 24 hours
Method: as §1, §2, §3, §4, §5, §6, §7

[5] = positive control solution, pH 1.68
[6] = 1 wt % to 30 wt % solution, incubating for 24 hours

Question: With `Cl` [Hydrochloric acid, reference compound] as the compound, how does the Anti-bacteria ratio [1, 5] read?
Answer: 100%

Question: And the Remaining bacteria [1, 5]?
Answer: 0 CFU/mL

Question: What about the Anti-bacteria ratio [2, 5] of the same compound?
Answer: 99.99%

Question: And the Remaining bacteria [2, 5]?
Answer: 18 CFU/mL

Question: Which results are given for `O=C1O[C@H]([C@@H](O)CO)C(O)=C1O` [L-ascorbic acid]?
Answer: remaining MRSA found ([3]; 5 wt % to 30 wt % solution, incubating for 24 hours): no remaining; Anti-bacteria ratio ([3]; 1% solution, pH 2.70): 99.99%; Remaining bacteria ([3]; 1% solution, pH 2.70): 2.0 × 10^3 CFU/mL; Anti-bacteria ratio ([3]; 5% solution, pH 2.28): 100%; Remaining bacteria ([3]; 5% solution, pH 2.28): 0 CFU/mL; Anti-bacteria ratio ([3]; 10% solution, pH 2.05): 100%; Remaining bacteria ([3]; 10% solution, pH 2.05): 0 CFU/mL; Anti-bacteria ratio ([3]; 15% solution, pH 1.93): 100%; Remaining bacteria ([3]; 15% solution, pH 1.93): 0 CFU/mL; Anti-bacteria ratio ([3]; 20% solution, pH 1.80): 100%; Remaining bacteria ([3]; 20% solution, pH 1.80): 0 CFU/mL; Anti-bacteria ratio ([3]; 25% solution, pH 1.68): 100%; Remaining bacteria ([3]; 25% solution, pH 1.68): 0 CFU/mL; Anti-bacteria ratio ([3]; 30% solution, pH 1.59): 100%; Remaining bacteria ([3]; 30% solution, pH 1.59): 0 CFU/mL; remaining E. coli found in the Petri dishes [1, 6]: no remaining; Anti-bacteria ratio ([1]; 1% solution, pH 2.70): 100%; Remaining bacteria ([1]; 1% solution, pH 2.70): 0 CFU/mL; Anti-bacteria ratio ([1]; 5% solution, pH 2.28): 100%; Remaining bacteria ([1]; 5% solution, pH 2.28): 0 CFU/mL; Anti-bacteria ratio ([1]; 10% solution, pH 2.05): 100%; Remaining bacteria ([1]; 10% solution, pH 2.05): 0 CFU/mL; Anti-bacteria ratio ([1]; 15% solution, pH 1.93): 100%; Remaining bacteria ([1]; 15% solution, pH 1.93): 0 CFU/mL; Anti-bacteria ratio ([1]; 20% solution, pH 1.80): 100%; Remaining bacteria ([1]; 20% solution, pH 1.80): 0 CFU/mL; Anti-bacteria ratio ([1]; 25% solution, pH 1.68): 100%; Remaining bacteria ([1]; 25% solution, pH 1.68): 0 CFU/mL; Anti-bacteria ratio ([1]; 30% solution, pH 1.59): 100%; Remaining bacteria ([1]; 30% solution, pH 1.59): 0 CFU/mL; remaining P. acnes found in the Petri dishes [4, 6]: no remaining; Anti-bacteria ratio ([4]; 1% solution, pH 2.70): 100%; Remaining bacteria ([4]; 1% solution, pH 2.70): 0 CFU/mL; Anti-bacteria ratio ([4]; 5% solution, pH 2.28): 100%; Remaining bacteria ([4]; 5% solution, pH 2.28): 0 CFU/mL; Anti-bacteria ratio ([4]; 10% solution, pH 2.05): 100%; Remaining bacteria ([4]; 10% solution, pH 2.05): 0 CFU/mL; Anti-bacteria ratio ([4]; 15% solution, pH 1.93): 100%; Remaining bacteria ([4]; 15% solution, pH 1.93): 0 CFU/mL; Anti-bacteria ratio ([4]; 20% solution, pH 1.80): 100%; Remaining bacteria ([4]; 20% solution, pH 1.80): 0 CFU/mL; Anti-bacteria ratio ([4]; 25% solution, pH 1.68): 100%; Remaining bacteria ([4]; 25% solution, pH 1.68): 0 CFU/mL; Anti-bacteria ratio ([4]; 30% solution, pH 1.59): 100%; Remaining bacteria ([4]; 30% solution, pH 1.59): 0 CFU/mL; remaining S. aureus found ([2]; 15 wt % to 30 wt % solution, incubating for 24 hours): no remaining; Anti-bacteria ratio ([2]; 1% solution, pH 2.70): 99.72%; Remaining bacteria ([2]; 1% solution, pH 2.70): 2.5 × 10^4 CFU/mL; Anti-bacteria ratio ([2]; 5% solution, pH 2.28): 99.97%; Remaining bacteria ([2]; 5% solution, pH 2.28): 3.0 × 10^3 CFU/mL; Anti-bacteria ratio ([2]; 10% solution, pH 2.05): 99.99%; Remaining bacteria ([2]; 10% solution, pH 2.05): 2.0 × 10^2 CFU/mL; Anti-bacteria ratio ([2]; 15% solution, pH 1.93): 100%; Remaining bacteria ([2]; 15% solution, pH 1.93): 0 CFU/mL; Anti-bacteria ratio ([2]; 20% solution, pH 1.80): 100%; Remaining bacteria ([2]; 20% solution, pH 1.80): 0 CFU/mL; Anti-bacteria ratio ([2]; 25% solution, pH 1.68): 100%; Remaining bacteria ([2]; 25% solution, pH 1.68): 0 CFU/mL; Anti-bacteria ratio ([2]; 30% solution, pH 1.59): 100%; Remaining bacteria ([2]; 30% solution, pH 1.59): 0 CFU/mL
